Our source for the TGI and GI50 values is PubChem BioAssay (NCI).

Common to all, as to test: NCI anticancer screen, dose series, 48 h
Assay [1] deals with A549 NSCLC.
The subject of assay [2] is ACHN renal.
Assay [3] has as its system HS 578T breast.
In assay [4] the test system is K-562 leukemia.
The test system of assay [5] is LOX IMVI melanoma.
Assay [6] concerns MDA-MB-231 breast.
In assay [7] the test system is MDA-N.
The subject of assay [8] is MOLT-4 leukemia.
In assay [9] the test system is OVCAR-3 ovarian.
Assay [10] deals with PC-3 prostate.
Assay [11] relates to RPMI-8226 leukemia.
Assay [12] concerns SK-MEL-2 melanoma.
Assay [13] deals with SK-MEL-28 melanoma.
For assay [14], the system named is SW-620 colon.
The subject of assay [15] is TK-10 renal.
Assay [16] has as its system U251 CNS.
In assay [17] the test system is UO-31 renal.
For assay [18], the system named is A498 renal.

“And” between values parts separate entries of the source, which are not always exact repeats. Identical values can stand only once.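 48-hour exposure; five concentrations; linearly interpolated endpoints. The concentration for 50% growth inhibition is given as GI50. TGI is the concentration that stops growth completely.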

Consider `O=C(O)c1ccc2c(c1)CC1(C2)Cc2ccccc2C1=O` (stereo not drawn), for which the TGI in [1], in [2], in assay [3], in assay [4], in [5] and in assay [6] was more than 100 µM throughout. Further, the TGI in assay [7], in [8], in [9], in [10], in assay [11] and in [12] was more than 100 µM each time. The TGI in assay [13], in assay [14], in assay [15], in [16] and in [17] was more than 100 µM in each case.

In the case of `Cc1ccc(S(=O)(=O)NC2C(=O)c3ccccc3C(=O)C2n2cnc3ccccc32)cc1` (stereo not drawn), the TGI in [1], in assay [2], in assay [3], in [4], in assay [5] and in assay [6] was more than 100 µM each time. Besides, the TGI in assay [7] was 45.5 µM; in assay [8], 68.1 µM; in assay [9] it was 15.4 µM; in assay [10], 64.3 µM; in [11] it was more than 100 µM; in assay [12] it was 51.7 µM. For the same molecule, the TGI was more than 100 µM in assay [13], 94.4 µM in assay [14], 49.6 µM in assay [15] and more than 100 µM in assay [16].

Regarding `CCOP(=O)(OCC)c1ccc(=O)[nH]c1-c1cccs1`, the TGI in [18], in assay [1], in assay [2], in assay [3], in assay [4] and in assay [7] was more than 100 µM in each case. Moreover, the TGI in [8], in assay [9], in assay [10], in assay [11], in [12] and in [13] was more than 100 µM each time. In addition, the TGI in [14], in assay [15], in [16] and in assay [17] was more than 100 µM throughout.

Turning to `C/C(=N/O)c1cccc(Nc2nc3ccc(Cl)cc3c3[nH]c4ccccc4c23)c1`, the TGI is 5.13 µM in assay [1]; 4.5 µM in assay [2]; 7.09 µM in [3]; more than 100 µM in assay [4]; 5.73 µM in assay [5]; 9.32 µM in assay [6]. Also, the TGI was determined as 4.05 µM in assay [7]; 5.97 µM in [8]; 4.65 µM in assay [9]; 4.7 µM in [10]; 3.52 µM in [11]; 3.88 µM in assay [12]. Besides, the TGI is 5.25 µM in assay [13]; 5.03 µM in assay [14]; 6.51 µM in assay [15]; 9.94 µM in assay [16]; 8.86 µM in assay [17].

Regarding `CCOC(=O)c1c(-c2ccc(O)c(OC)c2)c(C#N)c(=S)n(C2OC(COC(C)=O)C(OC(C)=O)C(OC(C)=O)C2OC(C)=O)c1-c1ccccc1` (stereo not drawn), the TGI in [18], in [1], in [2], in [3], in assay [4] and in assay [5] was more than 100 µM each time. The TGI in [7] was more than 100 µM; in [8], more than 100 µM; in [9] it was 48.4 µM and > 100 µM; in assay [10] it was more than 100 µM; in assay [11], more than 100 µM; in assay [13] it was more than 100 µM. Besides, the TGI in assay [14], in assay [16] and in assay [17] was more than 100 µM in each case. The GI50 was 49.1 µM and > 100 µM in assay [4]; 21.6 µM and 56.8 µM in [9].

With `N#Cc1sc2c(c1OC(=O)c1cccs1)c(=O)n(-c1ccccc1)c(=S)n2-c1ccccc1`, the TGI is more than 100 µM in assay [1]; 43.6 µM in assay [3]; 83.4 µM in assay [4]; 54.2 µM in [5]; 45.1 µM in [6]; 68.5 µM in assay [7]. The TGI in assay [8] is 62.3 µM; in assay [9], more than 100 µM; in [10] it was 64.6 µM; in assay [11], 49.6 µM; in [12] it was 51 µM; in assay [13] it was 61.6 µM. Besides, the TGI in assay [14] was 84.6 µM; in assay [15] it was more than 100 µM; in assay [16], 55.5 µM; in [17], 32.7 µM.

In the case of `COc1ccc(/C=C2\CCCCCC2=O)cc1`, the TGI in assay [18], in [1], in [2], in assay [4], in [5] and in assay [6] was more than 100 µM each time. In addition, the TGI in assay [7], in [8], in [9], in assay [10], in assay [11] and in assay [12] was more than 100 µM each time. The TGI in assay [13], in assay [14], in assay [15], in assay [16] and in [17] was more than 100 µM throughout.

With `N#Cc1c(Cl)/c(=C/O)c(=O)n2c1nc1ccccc12`, the TGI in [18] was 72.1 µM; in assay [1], more than 100 µM; in [2], more than 100 µM; in [3], 94.7 µM; in assay [4], more than 100 µM; in assay [5] it was more than 100 µM. For the same molecule, the TGI was more than 100 µM in assay [6]; more than 100 µM in assay [7]; 96.5 µM in assay [8]; 99.5 µM in assay [9]; more than 100 µM in [10]; more than 100 µM in assay [11]. Also, the TGI in [13], in assay [14], in assay [15], in assay [16] and in assay [17] was more than 100 µM in each case.

`O=C(C1C(c2ccccc2)N1C(c1ccccc1)c1ccccc1)C1C(c2ccccc2)N1C(c1ccccc1)c1ccccc1` (stereo not drawn): the TGI in assay [1] is more than 100 µM; in assay [3], 46.3 µM; in [4], 20.3 µM; in assay [6] it was 45.4 µM; in assay [7], more than 100 µM; in assay [8], 33.4 µM. In addition, the TGI was found to be 53.7 µM in assay [10]; 10.9 µM in [11]; 36.1 µM in [13]; 37.2 µM in [14]; 60.9 µM in assay [15]; 71.8 µM in assay [16]. For the same molecule, in assay [17], the TGI was determined as 38.4 µM.

In the case of `Cc1nn(-c2ccccc2)c2[nH]c(=S)cnc12`, the TGI in assay [18], in assay [1], in assay [3], in assay [4], in [5] and in assay [7] was more than 100 µM each time. For the same molecule, the TGI in assay [8], in assay [9], in assay [10], in assay [11], in assay [12] and in assay [13] was more than 100 µM in each case. For the same molecule, the TGI in [14], in assay [15], in assay [16] and in assay [17] was more than 100 µM in each case.

Take `COc1ccc2cc(/C=N\NC(=O)Nc3cccc4ccccc34)ccc2c1`: the TGI is 31.3 µM in [18]; more than 100 µM in [1]; 76.6 µM in assay [2]; 94.6 µM in assay [3]; 36.5 µM in assay [4]; more than 100 µM in assay [5]. For the same molecule, the TGI in assay [6] was 65.7 µM; in assay [7] it was more than 100 µM; in assay [8], more than 100 µM; in assay [10], more than 100 µM; in assay [12], more than 100 µM; in assay [13] it was more than 100 µM. Also, the TGI is more than 100 µM in [14], 56.5 µM in [15], 29.9 µM in assay [16] and more than 100 µM in assay [17].

Consider `CCOC(=O)[C@@H]1ON2O[C@H](OC3CCCC3(c3ccccc3)c3ccccc3)C[C@H]3OC(=O)[C@@H]1C32` (stereo partly drawn), for which the TGI in assay [18] was 95.9 µM; in assay [1], 76.6 µM; in assay [2], more than 100 µM; in [3], more than 100 µM; in assay [4] it was more than 100 µM; in assay [5], 86.7 µM. In addition, the TGI in assay [6], in assay [7], in assay [8], in [9], in assay [11] and in assay [14] was more than 100 µM each time. Moreover, the TGI in assay [15], in assay [16] and in assay [17] was more than 100 µM each time.

`C(=NCc1ccccc1)c1ccccc1-c1ccccc1C=NCc1ccccc1`: the TGI was more than 10 µM in [18]; more than 10 µM in assay [1]; more than 10 µM in assay [2]; 9.76 µM in assay [4]; more than 10 µM in assay [5]; more than 10 µM in [6]. For the same molecule, the TGI in assay [7], in assay [8], in [9], in assay [10], in assay [11] and in assay [12] was more than 10 µM throughout. Further, the TGI in [13], in assay [14], in assay [15], in [16] and in assay [17] was more than 10 µM throughout.

Regarding `Cc1ccc(Nc2nc(N)nc3c2ncn3C2OC(CO)C(O)C2O)cc1` (stereo not drawn), the TGI in [18], in assay [1], in [2], in [4], in assay [5] and in [6] was more than 100 µM each time. Moreover, the TGI in [7], in [8], in assay [9], in [10], in assay [11] and in assay [12] was more than 100 µM in each case. The TGI in [13], in [14], in assay [15], in assay [16] and in assay [17] was more than 100 µM throughout.

`Cn1c(NS(=O)(=O)c2ccccc2)nc2ccccc21`: the TGI in [18], in assay [1], in assay [2], in assay [3], in assay [4] and in [6] was more than 100 µM in each case. For the same molecule, the TGI in assay [7], in assay [8], in [11], in assay [13], in assay [14] and in assay [15] was more than 100 µM each time. Also, the TGI in assay [16] and in assay [17] was more than 100 µM each time.

For `O=C(O)c1ccc(Nc2nc3ccccc3nc2-c2cccs2)cc1`, the TGI in assay [18], in assay [1], in [2], in assay [3], in assay [4] and in assay [5] was more than 100 µM in each case. Besides, the TGI in assay [6], in assay [7], in assay [8], in assay [9], in assay [10] and in assay [11] was more than 100 µM in each case. Further, the TGI in [13], in assay [14], in assay [15], in assay [16] and in [17] was more than 100 µM throughout.

For the molecule `COc1cc(Nc2cnc3cc(F)c(F)cc3n2)cc(OC)c1`, the TGI in [18], in assay [1], in assay [2], in assay [3], in assay [5] and in assay [7] was more than 100 µM each time. Further, the TGI in assay [8], in assay [9], in [10], in assay [12], in [13] and in assay [14] was more than 100 µM each time. In addition, the TGI in assay [15], in assay [16] and in assay [17] was more than 100 µM each time.
